Values after ≈ are worked out from the molar mass of the structure shown.
How the values were obtained:
[1] = Protein binding in mouse plasma; assay type: ADME, cell-free; settings: read-out: PPB (converted)
[2] = Protein binding in human plasma; assay type: ADME, cell-free; settings: read-out: PPB (converted)
[3] = Volume of distribution at steady state in C57BL mouse at 10 mg/kg, po or 2 mg/kg, iv; assay type: ADME, organism-based; settings: in vivo
[4] = Metabolic stability in mouse liver microsomes assessed as half life; assay type: ADME, Microsome
[5] = Solubility of compound in FaSSIF at pH 6.5; assay type: physicochemical
[6] = Cmax in C57BL mouse at 10 mg/kg, po or 2 mg/kg, iv; assay type: ADME, organism-based; settings: in vivo
[7] = Tmax in C57BL mouse at 10 mg/kg, po or 2 mg/kg, iv; assay type: ADME, organism-based; settings: in vivo
[8] = tested on: MOLM-13; assay: cells; settings: Homo sapiens, MOLM-13, 72 h
Description: Antiproliferative activity against human MOLM-13 cells assessed as inhibition of cell viability incubated for 72 hrs by Cell Titer Glo assay

[9] = Solubility of compound in SGF at pH 1; assay type: physicochemical
[10] = AUC (0 to infinity) in C57BL mouse at 10 mg/kg, po or 2 mg/kg, iv; assay type: ADME, organism-based; settings: in vivo
[11] = Oral bioavailability in C57BL mouse at 10 mg/kg; assay type: ADME, organism-based; settings: in vivo
[12] = Half life in C57BL mouse at 10 mg/kg, po or 2 mg/kg, iv; assay type: ADME, organism-based; settings: in vivo
[13] = Unbound clearance in C57BL mouse at 10 mg/kg, po or 2 mg/kg, iv; assay type: ADME, organism-based; settings: in vivo
[14] = Metabolic stability in human liver microsomes assessed as half life; assay type: ADME, Microsome
[15] = Solubility of compound at pH 7; assay type: physicochemical; settings: buffer

fraction unbound [1]	fraction unbound [2]	Vdss [3] [L/kg]	half-life [4] [h]	solubility at 24 h [5] [µg/mL]	Cmax [6] [ng/mL]	Tmax [7] [h]	IC50 [8] [nM]	solubility at 24 h [9] [µg/mL]	AUC(0-inf) [10] [ng·h/mL]	bioavailability [11] [%]	half-life [12] [h]	CL free [13] [mL/min/kg]	half-life [14] [h]	solubility [15] [µM]	SMILES
0.032	0.049	2.12	> 3	198 (≈ 454 µM)	3210	0.67	0.72	43 (≈ 98.5 µM)	21800	102	4.03	245	2.33	–	CCn1c(CO)nn(-c2cc3c(C(C)C)cc(-c4ccccc4C)c(=O)n3cc2F)c1=O
–	–	–	> 3	–	–	–	1.4	–	–	–	–	–	2.98	< 4	CCn1c(CO)nn(-c2cc3c([C@@H](C)C(F)(F)F)nn(-c4ccccc4C)c(=O)c3cc2F)c1=O
0.134	0.122	1.94	> 3	99 (≈ 226 µM)	4260	0.83	0.72	78 (≈ 178 µM)	35100	111	4.55	40.7	> 3	> 400	CCn1c(CO)nn(-c2cc3c(C(C)C)nn(-c4ccccc4C)c(=O)c3cc2F)c1=O
–	–	–	> 3	–	–	–	–	–	–	–	–	–	> 3	< 4	CCn1c(CO)nn(-c2cc3c(C(C)C)cn(-c4c(F)cccc4Cl)c(=O)c3cc2F)c1=O
–	–	–	–	–	–	–	8.2	–	–	–	–	–	–	–	CCn1c(CO)nn(-c2cc3c(cc2F)C(=O)N(c2ccccc2C)C[C@@H]3C(C)C)c1=O
–	–	–	> 3	–	–	–	0.39	–	–	–	–	–	> 3	259 (≈ 123 µg/mL)	C=C(C)c1nn(-c2c(F)cccc2Cl)c(=O)c2cc(F)c(-n3nc(CO)n(CC)c3=O)cc12
–	–	–	> 3	–	–	–	29	–	–	–	–	–	> 3	> 400	CCn1c(CO)nn(-c2cc3c(cc2F)c(=O)c(-c2c(F)cccc2Cl)cn3C(C)C)c1=O
–	–	–	> 3	–	–	–	3.3	–	–	–	–	–	> 3	133 (≈ 58.3 µg/mL)	CCn1c(CO)nn(-c2nc3c(C(C)C)nn(-c4ccccc4C)c(=O)c3cc2F)c1=O
–	–	–	–	–	–	–	19	–	–	–	–	–	–	–	CCn1c(CO)nn(-c2cc3c(cc2F)C(=O)N(c2ccccc2C)C[C@H]3C(C)C)c1=O
–	–	–	–	–	–	–	0.47	–	–	–	–	–	–	–	CCn1c(CO)nn(-c2cc3c(cc2F)C(=O)C(c2ccccc2C)CN3C(C)C)c1=O (configuration not stated)
–	–	–	> 3	–	–	–	1.6	–	–	–	–	–	> 3	< 4	CCn1c(CO)nn(-c2cc3c([C@H](C)C(F)(F)F)nn(-c4ccccc4C)c(=O)c3cc2F)c1=O
0.025	0.044	1.43	> 3	–	5730	1.67	0.39	–	50400	103	5.02	144	> 3	< 4	CCn1c(CO)nn(-c2cc3c(C(C)C)nn(-c4c(F)cccc4Cl)c(=O)c3cc2F)c1=O
–	–	–	–	–	–	–	0.86	–	–	–	–	–	–	–	CCn1c(CO)nn(-c2cc3c(cc2F)C(=O)N(c2c(F)cccc2Cl)CN3C(C)C)c1=O
0.088	0.099	1.64	> 3	67 (≈ 153 µM)	6170	1.67	–	25 (≈ 57.3 µM)	57200	125	5.68	41.4	> 3	371 (≈ 162 µg/mL)	CCn1c(CO)nn(-c2cc3c(C(C)C)cn(-c4ccccc4C)c(=O)c3cc2F)c1=O
–	–	–	> 3	–	–	–	9.3	–	–	–	–	–	> 3	83 (≈ 36.2 µg/mL)	CCn1c(CO)nn(-c2cc3c(cc2F)c(=O)c(-c2ccccc2C)cn3C(C)C)c1=O

From ChEMBL document CHEMBL6083217, “Identification of isoquinolinone DHODH inhibitor isosteres” (Bioorg Med Chem Lett, 2024)
